We go through 8 compounds from patent publication US8211714B2, “Characterization of molecules” (Analiza, Inc., priority 2001, dated 2012).

One data set deals with T1, bovine β-lactoglobulin (Bos taurus, UniProt P02754).
T1 sequence (P02754 17-178): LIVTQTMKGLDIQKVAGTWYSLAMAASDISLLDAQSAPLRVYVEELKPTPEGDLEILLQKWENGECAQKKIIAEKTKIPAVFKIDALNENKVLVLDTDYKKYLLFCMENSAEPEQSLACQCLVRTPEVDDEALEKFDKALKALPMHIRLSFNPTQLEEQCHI
The data set can be described thus: Partitioning of bovine β-lactoglobulin with binding partners in aqueous two-phase systems. The settings on record: for Partition coefficient K-value, Dex-Ficoll system: 8.88 wt.% Dextran-64, 12.86 wt.% Ficoll-400, 0.01 M sodium phosphate buffer pH 8.6; for Partition coefficient K-value, Dex-Ficoll system / Partition coefficient K-value, Dex-Ficoll-NaSCN system / Partition coefficient K-value, Dex-PEG system: protein:binding partner 1:1; for Partition coefficient K-value, Dex-Ficoll-NaSCN system: 10.98 wt.% Dextran-64, 15.95 wt.% Ficoll-400, […] NaSCN, 0.01 M sodium phosphate buffer pH 8.6; for Partition coefficient K-value, Dex-PEG system: 12.33 wt.% Dextran-64, 6.05 wt.% PEG-6000, 0.15M NaCl, 0.01 M sodium phosphate buffer pH 7.4; for Partition coefficient K-value, PEG/Phosphate system: 13.75 wt.% PEG-600, 21.00 wt.% sodium/potassium phosphate buffer pH 6.8, protein:binding partner molecular ratio 1:1; for effect of binding on the protein K-value: all the systems used. The method, then:
β-Lactoglobulin from bovine milk, retinol, nitrophenyl phosphate and bromoethanol were purchased from Sigma Chemical Company (St. Louis, Mo., USA) and used without further purification. A stock solution of β-lactoglobulin in water was prepared at a concentration of 10.0 mg/ml. Nitrophenyl phosphate, retinol, and bromoethanol were dissolved in the protein stock solutions in the molecular ratios as indicated in Table 1. These protein/binding partner solutions were subjected to partitioning in a series of different aqueous two-phase systems, also as indicated below.
The aqueous two-phase system contained 13.75 wt. % PEG-600 (molecular weight of about 600) and 21.00 wt. % sodium/potassium phosphate buffer (pH 6.8). Each system was prepared by mixing the appropriate amounts of stock polymer and buffer solutions dispensed by liquid handling workstation Hamilton ML-2200 into a 1.2 mL microtube. A total volume of 800 μL was dispensed to the microtube. A varied amount (40, 80, 120, 160, and 200 μL) of the β-lactoglobulin solution or that of a mixture of a given ratio and the corresponding amount (160, 120, 80, 40, and 0.0 μl) of water were added to a system. The ratio between the volumes of the two phases of each system of a final volume of 1.00 mL was as 1:1. The system was shaken vigorously and then centrifuged for 30 min. at about 4000 rpm to speed resolution of the two phases. Tubes were then taken from the centrifuge, aliquots of a given volume (100 μl for direct spectrophotometric analysis and 150 μl for fluorescence analysis) from the top and the bottom phases were withdrawn in duplicate. Each aliquot was diluted, mixed with appropriate reagents, and used for analyzed as described below.
The other aqueous two-phase system contained 8.88 wt. % Dextran-64 (molecular weight of about 64,000), 12.86 wt. % Ficoll-400 (molecular weight of about 400,000) and 0.01 M sodium phosphate buffer (pH 8.6). Each system was prepared by mixing the appropriate amounts of stock polymer and buffer solutions dispensed by liquid handling workstation Hamilton ML-2200 into a microtube of a total volume of 1.2 mL up to a total volume of a system of 820 μL. A varied amount (40, 80, 120, and 160 μl) of the β-lactoglobulin solution or that of a mixture of a given ratio and the corresponding amount (140, 100, 60, and 20 μl) of water were added to each system. The ratio between the volumes of the two phases of each system of a final volume of 1.00 mL was as 1:1. The system was shaken vigorously and centrifuged for 30 min. at about 4000 rpm to speed the resolution of the phases. Tubes were taken out of the centrifuge, and aliquots of a given volume (100 μl for direct spectrophotometric analysis and 150 μl for fluorescence analysis) from the top and the bottom phases were withdrawn in duplicate and each diluted and mixed with appropriate reagents as indicated below and used for further analysis performed as described below.
The other aqueous two-phase system contained 10.98 wt. % Dextran-64 (molecular weight of about 64,000), 15.95 wt. % Ficoll-400 (molecular weight of about 400,000), 0.24M NaSCN, and 0.01 M sodium phosphate buffer (pH 8.6). Each system was prepared by mixing the appropriate amounts of stock polymer, salt, and buffer solutions dispensed by liquid handling workstation Hamilton ML-2200 into a microtube of a total volume of 1.2 mL up to a total volume of a system of 920 μL. A varied amount (20, 40, 60, and 80 μl) of the β-lactoglobulin solution or that of a mixture of a given ratio and the corresponding amount (60, 40, 20, and 0 μl) of water were added to a system. The ratio between the volumes of the two phases of each system of a final volume of 1.00 mL was as 1:1. The system was vigorously shaken and centrifuged for 30 min. at about 4000 rpm in a centrifuge with a bucket rotor to speed the phase settling.

The target in another data set is T2, hen egg white lysozyme (Gallus gallus, UniProt P00698).
T2 construct: Lysozyme from hen egg white; purchased Sigma Chemical Company (St. Louis, Mo., USA); host or cells: isolated from hen egg white
T2 sequence (P00698 19-147): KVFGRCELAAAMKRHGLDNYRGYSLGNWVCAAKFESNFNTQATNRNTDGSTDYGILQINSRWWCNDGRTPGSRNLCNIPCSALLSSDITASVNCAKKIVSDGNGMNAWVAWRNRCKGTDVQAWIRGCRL
Description: Partitioning of hen egg white lysozyme and its mixtures with binding partners in aqueous two-phase systems. The format is physicochemical. The settings on record: for Partition coefficient K-value, Dex-PEG system: pH 7.4; for Partition coefficient K-value, Dex-Ficoll system / Partition coefficient K-value, Dex-Ficoll-Na2SO4 system: pH 8.6. The method, then:
Glucose and N-acetyl-D-glucosamine were purchased from USB Corporation (Cleveland, Ohio, USA) and used without further purification. Stock solutions of lysozyme in water were prepared at a concentration of 5.0 mg/ml. N,N′-Diacetylchitobiose and N,N′,N″-triacetylchitotriose were dissolved at a concentration of 10 mg/ml and mixed with the protein solution in ratios appropriate to provide protein:ligand molecular ratios of 1:1. Stock solutions of lysozyme and of the lysozyme mixtures with ligands were added to an aqueous two-phase system as described below.

Data set [1] is described as follows: Partitioning of human, bovine and porcine insulin in aqueous two-phase systems. Type of data set: physicochemical. The note with it: pH 7.4. On the procedure:
Human recombinant insulin was purchased from ICN Biomedicals Inc. (Aurora, Ohio, USA), bovine and porcine insulins were purchased from Calbiochem Corporation (San Diego, Calif., USA) and used without further purification. […] Stock solutions of all insulins in 0.009M HCl were prepared and titrated with 0.01M NaOH to pH 6.0 with the final protein concentration of ca. 1.0 mg/ml. Stock solution of human insulin, stock solution of porcine insulin, and stock solution of bovine insulin were added to an aqueous two-phase system as described below.

Turning to `OCCBr`, on bovine β-lactoglobulin, the “Partition coefficient K-value, Dex-Ficoll system” value turned out to be 0.848 ± 0.009; the “Partition coefficient K-value, Dex-Ficoll-NaSCN system” value is 0.486 ± 0.005; the “Partition coefficient K-value, Dex-PEG system” value is reported as 0.183 ± 0.001; the “Partition coefficient K-value, PEG/Phosphate system” value was 1.904 ± 0.013. Further, the “effect of binding on the protein K-value” at bovine β-lactoglobulin is listed as “decreases”.

As for `O=[N+]([O-])c1ccc(OP(=O)(O)O)cc1`, on bovine β-lactoglobulin, the “Partition coefficient K-value, Dex-Ficoll system” value was determined as 0.823 ± 0.018; the “Partition coefficient K-value, Dex-Ficoll-NaSCN system” value is on record as 0.420 ± 0.001; the “Partition coefficient K-value, Dex-PEG system” value was found to be 0.103 ± 0.001; the “Partition coefficient K-value, PEG/Phosphate system” value is given as 1.714 ± 0.012. Further, on bovine β-lactoglobulin, the “effect of binding on the protein K-value” is “decreases”.

Turning to `CC(=O)N[C@H]1[C@H](O[C@H]2[C@H](O)[C@@H](NC(C)=O)C(O)O[C@@H]2CO)O[C@H](CO)[C@@H](O[C@@H]2O[C@H](CO)[C@@H](O)[C@H](O)[C@H]2NC(C)=O)[C@@H]1O` (stereo partly drawn) [N,N′,N″-Triacetylchitotriose], at hen egg white lysozyme, the “Partition coefficient K-value, PEG-3350-Phosphate system” value stood at 0.461 ± 0.006; the “Partition coefficient K-value, Dex-PEG system” value amounted to 2.033 ± 0.052; the “Partition coefficient K-value, Dex-Ficoll system” value came to 0.803 ± 0.004; the “Partition coefficient K-value, Dex-Ficoll-Na2SO4 system” value came to 1.106 ± 0.007.

As to `CC(=O)N[C@H]1[C@H](O[C@H]2[C@H](O)[C@@H](NC(C)=O)C(O)O[C@@H]2CO)O[C@H](CO)[C@@H](O)[C@@H]1O` (stereo partly drawn) [N,N′-Diacetylchitobiose], at hen egg white lysozyme, the “Partition coefficient K-value, PEG-3350-Phosphate system” value was 1.311 ± 0.013; the “Partition coefficient K-value, Dex-PEG system” value is recorded as 2.563 ± 0.032; the “Partition coefficient K-value, Dex-Ficoll system” value came out at 0.826 ± 0.001; the “Partition coefficient K-value, Dex-Ficoll-Na2SO4 system” value came to 1.177 ± 0.009.

For `CC(=O)N[C@H]1C(O)O[C@H](CO)[C@@H](O)[C@@H]1O` (stereo partly drawn) [N-Acetyl-D-glucosamine], at hen egg white lysozyme, the “Partition coefficient K-value, PEG-3350-Phosphate system” value is listed as 2.402 ± 0.002; the “Partition coefficient K-value, Dex-PEG system” value turned out to be 2.860 ± 0.035; the “Partition coefficient K-value, Dex-Ficoll system” value is listed as 0.818 ± 0.003; the “Partition coefficient K-value, Dex-Ficoll-Na2SO4 system” value is 1.214 ± 0.010.

Consider “Porcine Insulin: porcine insulin (Calbiochem); differs from human insulin by Ala in position B30”, for which, in data set [1], the “Partition coefficient K-value, Dex-Ficoll-NaCl—NaPB” value is reported as 1.350 ± 0.015; the “Partition coefficient K-value, Dex-Ficoll-NaSCN—NaPB” value was 0.911 ± 0.006; the “Partition coefficient K-value, Dex-PEG-NaClO4—NaPB” value is given as 0.656 ± 0.020; the “Partition coefficient K-value, Dex-PEG-NaSCN—NaPB” value is reported as 1.514 ± 0.019.

Turning to Retinol acetate, at bovine β-lactoglobulin, the “Partition coefficient K-value, Dex-Ficoll system” value turned out to be 0.812 ± 0.006; the “Partition coefficient K-value, Dex-Ficoll-NaSCN system” value amounted to 0.468 ± 0.002; the “Partition coefficient K-value, Dex-PEG system” value came out at 0.196 ± 0.001; the “Partition coefficient K-value, PEG/Phosphate system” value came out at 1.858 ± 0.016. For the same compound, the “effect of binding on the K-value of the protein” value at bovine β-lactoglobulin (Dex-Ficoll system) is “reduces”. Moreover, the “effect of binding on the K value of the protein” value on bovine β-lactoglobulin (PEG-Phosphate, Dex-PEG, and Dex-Ficoll-NaSCN systems) is recorded as “increases”.

In the case of “hen egg white lysozyme: Lysozyme from hen egg white (Sigma); protein alone, row 'None' of Table 2”, in the data set with hen egg white lysozyme, the “Partition coefficient K-value, PEG-3350-Phosphate system” value was 2.278 ± 0.006; the “Partition coefficient K-value, Dex-PEG system” value is 2.728 ± 0.010; the “Partition coefficient K-value, Dex-Ficoll system” value is on record as 0.890 ± 0.007; the “Partition coefficient K-value, Dex-Ficoll-Na2SO4 system” value is 1.239 ± 0.008.
